Experimental data published in the NIST ThermoML archive (doi:10.1021/je049712l).
Numbers after ± are expanded uncertainties.

Settings: 101.33 kPa, Liquid, Vibrating tube method

mass density (273 K): 800 ± 24 kg/m3 | mass density (298 K): 787 ± 24 kg/m3 | mass density (303 K): 786 ± 24 kg/m3 | mass density (313 K): 779 ± 24 kg/m3 | mass density (323 K): 768 ± 24 kg/m3
Structure (SMILES): CO [methanol]
